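Grown in 96-well plates, cells were treated for 48 hours with each compound at five concentrations. Insufficient inhibition: endpoint recorded as highest concentration tested. GI50: concentration for 50% inhibition of growth. TGI denotes the concentration required for complete inhibition of growth.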
Key:
Assay in all cases: DTP human tumour cell line panel, 48 h
A549 NSCLC = test system: A549 NSCLC
HS 578T breast = test system: HS 578T breast
PC-3 prostate = test system: PC-3 prostate
RPMI-8226 leukemia = test system: RPMI-8226 leukemia
SK-MEL-28 melanoma = test system: SK-MEL-28 melanoma
SNB-19 CNS = test system: SNB-19 CNS
SNB-75 CNS = test system: SNB-75 CNS
SR leukemia = test system: SR leukemia
T-47D breast = test system: T-47D breast
U251 CNS = test system: U251 CNS

Row | Compound | GI50 (A549 NSCLC) | TGI (A549 NSCLC) | GI50 (HS 578T breast) | TGI (HS 578T breast) | GI50 (PC-3 prostate) | TGI (PC-3 prostate) | GI50 (RPMI-8226 leukemia) | TGI (RPMI-8226 leukemia) | GI50 (SK-MEL-28 melanoma) | TGI (SK-MEL-28 melanoma) | GI50 (SNB-19 CNS) | TGI (SNB-19 CNS) | GI50 (SNB-75 CNS) | TGI (SNB-75 CNS) | GI50 (SR leukemia) | TGI (SR leukemia) | GI50 (T-47D breast) | TGI (T-47D breast) | GI50 (U251 CNS) | TGI (U251 CNS)
1 | Cn1cc(C2=C(c3ccc(N)cc3)C(=O)NC2=O)c2ccccc21 | 18400 nM | > 25 µM | 3010 nM | > 16.1 µM | 17000 nM | > 25 µM | > 23500 nM | > 25 µM | > 25000 nM | > 25 µM | > 25000 nM | > 25 µM | 571 nM | > 15.2 µM | 9430 nM | > 25 µM | > 24000 nM | > 25 µM | 11400 nM | > 25 µM
2 | C(=NCCN1CCOCC1)=NC1CCCCC1 |  | > 100 µM |  | > 100 µM |  | > 100 µM |  | > 100 µM |  | > 100 µM |  | > 100 µM |  | > 100 µM |  | > 100 µM |  | > 100 µM |  | > 100 µM
3 | CCN(CC)CCC(CNc1ccnc2cc(Cl)ccc12)c1ccc(Cl)cc1 (centres undefined) | 1640 nM | 3.96 µM | 1660 nM | 4.67 µM | 3280 nM | 17.7 µM | 1020 nM | 3.67 µM | 763 nM | 2.06 µM | 1980 nM | 5.78 µM | 1300 nM | 2.64 µM | 311 nM | 1.48 µM | 1920 nM | 4.21 µM | 1370 nM | 2.85 µM
4 | O=C(Nc1ccc2ncccc2c1)Nc1ccc2ncccc2c1 |  | > 100 µM |  | > 100 µM |  | > 100 µM |  | > 100 µM |  | > 100 µM |  | > 100 µM |  | > 100 µM |  | > 100 µM |  | > 100 µM |  | > 100 µM
5 | CSC1=Nc2c(c(C)c(C)n2COC(CO)CO)C2=NC(=O)C(C)N12 (centres undefined) | > 100000 nM | > 100 µM | > 100000 nM | > 100 µM | > 100000 nM | > 100 µM | > 100000 nM | > 100 µM | > 100000 nM | > 100 µM | > 100000 nM | > 100 µM | 26300 nM | > 100 µM | 2480 nM | > 100 µM | > 100000 nM | > 100 µM | > 100000 nM | > 100 µM
6 | NC(=O)/C=C/C(=O)c1c(Cl)cccc1Cl | 1790 nM | 3.39 µM | 2200 nM | 5.15 µM | 1460 nM | 2.81 µM | 264 nM | 1.14 µM | 1210 nM | 2.52 µM | 1750 nM | 3.38 µM | 1610 nM | 2.96 µM | 224 nM | 1.37 µM | 191 nM | 0.408 µM | 1360 nM | 2.67 µM
7 | Cn1c(I)c(C#CCO[Si](C)(C)C(C)(C)C)c(=O)[nH]c1=O | > 100000 nM | > 100 µM | 20100 nM | 43.4 µM | 17000 nM | 32.7 µM | 4390 nM | 14.2 µM | 2950 nM | 9.05 µM | > 100000 nM | > 100 µM | 16200 nM | 37.7 µM | 1530 nM | 3.6 µM | 2920 nM | 15 µM | 17400 nM | 31.9 µM
8 | COc1cccc(F)c1C(=O)c1cnc(NC2CCN(S(C)(=O)=O)CC2)nc1N | 3150 nM | > 25 µM | 3830 nM | 15.9 µM | 984 nM | 12.3 µM | 1960 nM | 11.3 µM | 3430 nM | > 20.8 µM | 3460 nM | > 25 µM | 4130 nM | 9.57 µM | 644 nM | > 11.8 µM | 5220 nM | 24.4 µM | 2600 nM | > 25 µM
9 | Cc1cc(C)c2c(n1)sc1c(Nc3ccc(Cl)cc3)ncnc12 | < 10 nM | > 100 µM | > 100000 nM | > 100 µM | 199 nM | > 100 µM | 19.7 nM | > 100 µM | 4400 nM | > 100 µM | < 10 nM | > 100 µM | 17 nM | > 26.4 µM | < 10 nM | 38.6 µM | 29.9 nM | > 100 µM | < 10 nM | > 100 µM
10 | c1ccc(-c2nnc(-c3ccccn3)s2)nc1 | > 100000 nM | > 100 µM | > 100000 nM | > 100 µM | > 100000 nM | > 100 µM | > 100000 nM | > 100 µM | > 100000 nM | > 100 µM | > 100000 nM | > 100 µM | 72900 nM | > 100 µM | > 100000 nM | > 100 µM | 5320 nM | > 100 µM | > 100000 nM | > 100 µM
11 | COc1cc(-c2oc(=O)ccc2C#Cc2ccccn2)cc(OC)c1OC | 4150 nM | > 100 µM | 2980 nM | > 24 µM | 2210 nM | > 100 µM | 1800 nM | 9.59 µM | 3340 nM | > 100 µM | 3800 nM | > 76.1 µM | 1930 nM | > 29.8 µM | 257 nM | > 39.9 µM | 3460 nM | > 41.8 µM | 3510 nM | > 86 µM
12 | N#Cc1c(NC(=O)NCc2ccccc2)sc2c1CCCCC2 | 626 nM | > 100 µM | 314 nM | 9.33 µM | 488 nM | > 100 µM | 397 nM |  | 2770 nM | > 100 µM | 588 nM | > 100 µM | 261 nM | 4.91 µM | 346 nM | > 100 µM | 343 nM | > 100 µM | 535 nM | > 71.2 µM
13 | O=C(Nc1ccc(Br)cc1F)c1cc(F)ccc1O | 1690 nM | > 100 µM | 405 nM | 4.39 µM | 1150 nM | 7.24 µM | 296 nM | 1.36 µM | 377 nM | 1.84 µM | 419 nM | > 100 µM | 225 nM | 2.11 µM | 476 nM | > 100 µM | 511 nM | 5.59 µM | 609 nM | > 100 µM
